ChEMBL document CHEMBL3045222, “Synthesis of novel benzimidazole derivatives: as potent analgesic agent” (2013)

Experiments:
Assay type in all cases: functional
Rattus norvegicus [1] = assay: Analgesic activity in Rattus norvegicus (rat) assessed as time taken to withdraw tail in response to heat stress at 50 mg/kg, po after 120 min by tail flick method based analgesiometer analysis (reference value: 5.16 +/-0.31 secs)
Rattus norvegicus [2] = assay: Analgesic activity in Rattus norvegicus (rat) assessed as time taken to withdraw tail in response to heat stress at 50 mg/kg, po after 90 min by tail flick method based analgesiometer analysis (reference value: 6.00 +/-0.36 secs)
Rattus norvegicus [3] = assay: Analgesic activity in Rattus norvegicus (rat) assessed as time taken to withdraw tail in response to heat stress at 50 mg/kg, po after 60 min by tail flick method based analgesiometer analysis (reference value: 6.5 +/-0.22 secs)
Rattus norvegicus [4] = assay: Analgesic activity in Rattus norvegicus (rat) assessed as time taken to withdraw tail in response to heat stress at 50 mg/kg, po after 30 min by tail flick method based analgesiometer analysis (reference value: 5.50 +/-0.43 secs)

Structure (SMILES)	Time (Rattus norvegicus [1]) [s]	Time (Rattus norvegicus [2]) [s]	Time (Rattus norvegicus [3]) [s]	Time (Rattus norvegicus [4]) [s]
CCCCn1c(-c2c(O)ccc3ccccc23)nc2ccccc21	6.83	9.66	10.5	10.66
Cn1c(-c2c(O)ccc3ccccc23)nc2ccccc21	5.16	6	7	6.5
COc1ccc2nc(-c3c(O)ccc4ccccc34)n(C)c2c1	6.83	8.5	10.33	10.66
CCCCn1c(-c2c(O)ccc3ccccc23)nc2ccc(OC)cc21	6.66	7.66	9.33	8.66
CCCCn1c(-c2c(O)ccc3ccccc23)nc2ccc([N+](=O)[O-])cc21	4.83	6	6.5	6.66
Cn1c(-c2c(O)ccc3ccccc23)nc2ccc([N+](=O)[O-])cc21	7	6.83	11.5	10.5
O=C(O)Cc1ccccc1Nc1c(Cl)cccc1Cl [DICLOFENAC]	7	10	11.66	10.83
